Legend:
[1] = skin permeability, static Franz diffusion cells; format: in vitro ADME, pig
Description: For the permeability experiments, ultra-performance liquid chromatography-electrospray ionization tandem mass spectroscopy (UPLC)-ESI-MS/MS analysis was carried out using a Xevo TQ-S micro triple quadrupole mass spectrometer equipped with an electrospray interface and coupled to an Acquity UPLC H-Class Plus system from Waters. Separation was achieved on an ACE Excel C18-PFP column (75 × 2.1 mm, 1.7 μm) from Advanced Chromatography Technologies Ltd. (Aberdeen, Scotland). Mobile phase A consisted of 0.1% formic acid and 5% acetonitrile in water, whereas mobile phase B consisted of 0.1% formic acid and 5% water in acetonitrile. The gradient program used was as follows: 20% B (0–2 min), 20–80% B (2–9 min), 80–95% B (9–9.1 min), 95% B (9.1–12 min), 95–20% B (12–12.1 min), 20% B (12.1–15 min). The flow rate was set to 0.3 mL/min and the injection volume was 2 μL. Analysis was performed in positive ionization mode using a Multiple Reaction Monitoring (MRM) method. The optimal parameters were capillary voltage 1.5 (kV), desolvation temperature 650 °C, desolvation gas 850 L/h, and cone 100 L/h.
The Franz diffusion cell experiment was based on the OECD Test Guidelines.[35] Static Franz diffusion cells equipped with pig ex vivo epidermis were used to assess the permeability of isosorbide bis-epoxides 2 and 3. Freshly cut pig ears were received frozen and stored at −20 °C until used for permeability assessment. One day before the experiment, the ears were transferred at +4 °C and allowed to thaw. The ears were then washed, shaved, and carefully cut with a Watson Dermatome skin graft knife to obtain 0.1 mm pieces of the epidermis layer. The integrity of the skin (transparent and intact) was determined by ocular inspection. Thereafter, the epidermis layer was cut and positioned between the donor and receptor compartment of each Franz cell. The receptor compartments were filled with 5 mL of ethanol/PBS (1:1) and equipped with a small magnetic stir bar to ensure mixing while maintaining a constant temperature of the circulating water at 37 °C. To equilibrate the skin, the upper chamber was filled with 0.5 mL of ethanol/PBS (1:1) which was later removed and replaced with the donor solution (50 μL) containing either 2 or 3 (0.1 mg/mL) or DGEBA (0.1 mg/mL) used as a positive control. A procedural blank containing only 50 μL of ethanol/PBS (1:1) in the donor compartment was also included in the experimental setup. Samples of 100 μL were collected after 0–2 min, 1, 2, 3, 4, 5, and 6 h. At each timepoint, a sample aliquot was removed and 100 μL of ethanol/PBS (1:1) was added to the receptor compartment to keep the volume constant. After 6 h, the skin from each Franz cell was extracted overnight in 5 mL of ethanol/PBS (1,1). Triplicate experiments were performed for each compound. The obtained samples were analyzed with UPLC-ESI-MS/MS (see Figure S2 for parameters) and quantification was based on external calibration curves. The limit of quantification (LOQ) was determined by the analysis of the analyte at low concentration and was calculated as 10 times the signal-to-noise ratio.

[2] = design: method as in Ponting et al. 26; details: polymer, TGA under nitrogen; ref Ponting et al. 26; cited from earlier work
[3] = test system: Female CBA/Ca mice; details: cited from earlier work
[4] = test system: guinea pig; details: cited from earlier work
[5] = Extract: skin extracted overnight after 6 h

Question: What does the source list for CC(C)(c1ccc(OCC2CO2)cc1)c1ccc(OCC2CO2)cc1 (stereo not drawn) [DGEBA, diglycidyl ether of bisphenol A, reference compound]?
Answer: permeation of epidermis ([1]; 6 h experiment, donor 0.1 mg/mL): observed; Average (µM) [1, 5]: 0.206 µM; Average (µg/ml) [1, 5]: 0.0700 µg/mL; Replicate 1 [1, 5]: 0.0658 µg/mL; Replicate 2 (µg/ml) [1, 5]: < LOQ; Replicate 3 [1, 5]: 0.0742 µg/mL; recovery at 6 h, 0.1 mg/mL ([1]; pig, w/w %, sum of receptor compartment after 6 h and overnight skin extraction): 35%; Average (µM) ([1]; receptor fluid, timepoint 0 h): 0 µM; Average (µg/ml) ([1]; receptor fluid, timepoint 0 h): 0 µg/mL; Replicate 1 (µg/ml) ([1]; receptor fluid, timepoint 0 h): < LOQ; Replicate 2 (µg/ml) ([1]; receptor fluid, timepoint 0 h): < LOQ; Replicate 3 (µg/ml) ([1]; receptor fluid, timepoint 0 h): < LOQ; Average (µM) ([1]; receptor fluid, timepoint 1 h): 0 µM; Average (µg/ml) ([1]; receptor fluid, timepoint 1 h): 0 µg/mL; Replicate 1 (µg/ml) ([1]; receptor fluid, timepoint 1 h): < LOQ; Replicate 2 (µg/ml) ([1]; receptor fluid, timepoint 1 h): < LOQ; Replicate 3 (µg/ml) ([1]; receptor fluid, timepoint 1 h): < LOQ; Average (µM) ([1]; receptor fluid, timepoint 2 h): 0.595 µM; Average (µg/ml) ([1]; receptor fluid, timepoint 2 h): 0.203 µg/mL; Replicate 1 ([1]; receptor fluid, timepoint 2 h): 0.315 µg/mL; Replicate 2 ([1]; receptor fluid, timepoint 2 h): 0.184 µg/mL; Replicate 3 ([1]; receptor fluid, timepoint 2 h): 0.108 µg/mL; Average (µM) ([1]; receptor fluid, timepoint 3 h): 0.818 µM; Average (µg/ml) ([1]; receptor fluid, timepoint 3 h): 0.278 µg/mL; Replicate 1 ([1]; receptor fluid, timepoint 3 h): 0.419 µg/mL; Replicate 2 ([1]; receptor fluid, timepoint 3 h): 0.239 µg/mL; Replicate 3 ([1]; receptor fluid, timepoint 3 h): 0.177 µg/mL; Average (µM) ([1]; receptor fluid, timepoint 4 h): 0.868 µM; Average (µg/ml) ([1]; receptor fluid, timepoint 4 h): 0.296 µg/mL; Replicate 1 ([1]; receptor fluid, timepoint 4 h): 0.456 µg/mL; Replicate 2 ([1]; receptor fluid, timepoint 4 h): 0.229 µg/mL; Replicate 3 ([1]; receptor fluid, timepoint 4 h): 0.202 µg/mL; Average (µM) ([1]; receptor fluid, timepoint 5 h): 0.851 µM; Average (µg/ml) ([1]; receptor fluid, timepoint 5 h): 0.290 µg/mL; Replicate 1 ([1]; receptor fluid, timepoint 5 h): 0.436 µg/mL; Replicate 2 ([1]; receptor fluid, timepoint 5 h): 0.237 µg/mL; Replicate 3 ([1]; receptor fluid, timepoint 5 h): 0.196 µg/mL; Average (µM) ([1]; receptor fluid, timepoint 6 h): 0.817 µM; Average (µg/ml) ([1]; receptor fluid, timepoint 6 h): 0.278 µg/mL; Replicate 1 ([1]; receptor fluid, timepoint 6 h): 0.406 µg/mL; Replicate 2 ([1]; receptor fluid, timepoint 6 h): 0.218 µg/mL; Replicate 3 ([1]; receptor fluid, timepoint 6 h): 0.210 µg/mL; amount in receptor fluid after 6 h (%) ([1]; w/w %): 27.8 ± 9.0%; amount on/in skin (%) ([1]; w/w %, overnight skin extraction after 6 h): 7.0 ± 0.4%; recovery (%) ([1]; w/w %, sum of receptor compartment after 6 h and overnight skin extraction): 34.8 ± 9.4%; Ea (activation energy for the decomposition of the cured epoxy resins) [2]: 40.2 kcal/mol; IDT (initial decomposition temperature) [2]: 358 °C; Rmax (maximum weight loss rate) [2]: –2.17 %/°C; Tmax (temperature at the maximum rate of weight loss) [2]: 408 °C; EC3 [3]: 0.036 M; skin sensitizer classification in guinea pig maximization test [4]: strong

From article PMC9945177, “Nature-Derived Epoxy Resin Monomers with Reduced Sensitizing Capacity—Isosorbide-Based Bis-Epoxides” (Chemical Research in Toxicology, 2023)
